Patent US10126304B2, “Binding domain mapping” (George Mason Research Foundation, Inc., priority 2013, dated 2018)
Entries after “also recorded” stand apart in the source; their conditions may differ.

Columns and labels:
[1] = test system: SAPK/JNK signaling downstream from IL1RI; experiment: SAPK/JNK signaling in IL1β stimulated NCI/ADR-RES cells, western blotting; format: cell-based; settings: IL1β 10 ng/mL; Arg286 peptide 3.3, 16.7 and 33 μM; scrambled peptide 33 μM
Procedure: NCI/ADR-RES cells (Division of Cancer Treatment and Diagnosis, National Cancer Institute) were cultured in Dulbecco's modified Eagle's medium (Gibco) with 10% fetal bovine serum (ATCC), and 2 mM L-glutamine (ATCC) at 37° C., 5% CO2, in a humidified environment. NCI/ADR-RES cells (2×10^6 cells/well) were plated into 6-well tissue culture dishes. The following day, cells were pre-treated for 30 minutes with soluble IL1RAcP (1 μg/mL) lacking the trans-membrane domain, Arg286 peptide ([…], 3.3, 16.7 and 33 μM) (SEQ ID NO:6) and a scrambled peptide obtained by randomly shuffling Arg286 sequence ([…], 33 μM) (SEQ ID NO:7). Cells were washed with Dulbecco's modified Eagle's medium with 10% fetal bovine serum, and 2 mM glutamine and were stimulated with IL1β at 10 ng/ml for 30 min. Following incubation, cells were washed in ice-cold PBS, incubated with 100 μl of cell lysis buffer (10% Bond Breaker TCEP solution (Thermo Scientific), 45% T-PER tissue protein extraction reagent (Thermo Scientific) and 45% Novex Tris Glycine SDS sample buffer 2× (Invitrogen)), scraped, transferred to Eppendorf tubes, and heated at 100° C. for 10 minutes. Cell lysates were analyzed by western blotting.
Proteins were separated by 1-D gel electrophoresis in 4-20% Tris-Glycine gel in the presence of Tris-Glycine SDS running buffer with the following run conditions: 125 V, 90 minutes. […]

[2] = target: T1, IL1R1 molecule, soluble portion (Homo sapiens, UniProt P14778); experiment: Trypsin sites blocked by small organic molecules on folded protein, mass spectrometry; format: biochemical
T1 construct: Linear representation of IL1R1 molecule, soluble portion; purchased Adipogen
T1 sequence (P14778 21-336): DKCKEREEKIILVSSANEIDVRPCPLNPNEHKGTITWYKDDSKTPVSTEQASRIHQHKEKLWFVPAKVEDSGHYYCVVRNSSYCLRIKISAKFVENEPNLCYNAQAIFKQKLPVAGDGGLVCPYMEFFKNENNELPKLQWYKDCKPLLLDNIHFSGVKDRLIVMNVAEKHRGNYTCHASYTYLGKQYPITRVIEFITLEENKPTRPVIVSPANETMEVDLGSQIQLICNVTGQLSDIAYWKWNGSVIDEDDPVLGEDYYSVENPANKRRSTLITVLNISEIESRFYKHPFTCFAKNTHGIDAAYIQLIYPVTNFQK
Source text: The binding of the small organic molecules is localized to multiple sites restricted to the surface of the protein, and excluded from internal domains of protein-protein interactions […]. […] Thus these molecules can be employed to reveal a) the inner contact domains of a single folded protein or b) the contact domains of two or more interacting proteins.
To identify functional protein-protein interaction domains, three equimolar concentrations of Interleukin ligand, its cognate receptor, and its accessory proteins were selected as a proof of concept protein complex. Interleukin 1β (IL1β, Gibco, 65 pmoles in 50 μl PBS), Interleukin 1 receptor type I (IL1RI, Adipogen, 65 pmoles in 50 μl PBS), and Interleukin 1 receptor accessory protein (IL1RAcP, Novoprotein, 65 pmoles in 50 μl PBS), were allowed to interact for one hour at room temperature under rotation. […]
As a control to identify solvent accessible surface areas, protein solutions were prepared in parallel at the same concentrations without adding paint molecules. […] Equal quantities of unbound, Interleukin 1β, IL1RI, or IL1RAcP were mixed individually with each of the four molecular paints (3 proteins×4 paints, n=12) in a 1:10 molar ratio (protein:molecular paint). […]
The solutions were immediately passed through a size sieving Sephadex column (PD MiniTrap G 25, GE Healthcare) and the flow through was collected, denatured with urea (final concentration 2M), reduced with 1 M dithiothreitol (Sigma, 15 minutes at 37° C.), alkylated with 0.5 M iodoacetamide (Sigma, 15 minutes, room temperature in the dark), and digested with trypsin (Promega) at 1:10 w/w protease/protein ratio for 2 hours at 37° C. Tryptic peptides were purified by Zip-Tip (Millipore) following manufacturer's instructions, and analyzed by reversed-phase liquid chromatography nanospray tandem mass spectrometry (LC-MS/MS) using an LTQ-Orbitrap mass spectrometer (ThermoFisher).

[3] = target: T2, IL1β-IL1RI-IL1RAcP complex (Homo sapiens, UniProt P01584+P14778); experiment: Pull-down of IL1β within the receptor complex by His-tagged IL1RAcP (immunoprecipitation); format: binding; settings: Arg286 peptide 6.7, 3.3, 1.7, 0.8 and 0.4 μM
T2 construct: purchased Gibco (IL1β); Adipogen (IL1RI); Novoprotein (IL1RAcP)
T2 sequence (P01584 117-269, one chain of several): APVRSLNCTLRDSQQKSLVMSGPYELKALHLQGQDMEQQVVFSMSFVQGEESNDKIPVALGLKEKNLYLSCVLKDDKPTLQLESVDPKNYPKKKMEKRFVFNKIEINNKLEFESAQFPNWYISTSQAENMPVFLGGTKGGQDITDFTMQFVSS
Procedure: IL1β (0.44 μg/mL), IL1RI (2 μg/mL) and 6×His-tagged IL1RAcP (0.72 μg/mL) were incubated with Arg286 peptide (6.7, 3.3, 1.7, 0.8 and 0.4 μM) in 50 μl of PBS for one hour at room temperature under rotation. In parallel, […], IL1RI and 6×His-tagged IL1RAcP were allowed to interact without Arg286 peptide as a positive control. IL1β, and 6×His-tagged IL1RAcP were allowed to interact in absence of IL1RI as a negative control. After 1 hour, protein mixtures were incubated with magnetic beads decorated with anti-6His mouse monoclonal antibody obtained as follows. BcMag Protein G Magnetic Beads (50 μl, Bioclone) were washed 3 times with washing buffer (57.7 mM Na2HPO4, 42.3 mM NaH2PO4, pH 7.0) and incubated with anti-6×His mouse monoclonal antibody (1 μg, Abcam) for 30 minutes under rotation. Magnetic beads were separated from the supernatant with neodymium magnets, washed three times with washing buffer (57.7 mM Na2HPO4, 42.3 mM NaH2PO4, pH 7.0) and incubated with protein mixtures for one hour at room temperature under rotation. Magnetic beads were separated from the supernatant with neodymium magnets and washed three times with washing buffer (57.7 mM Na2HPO4, 42.3 mM NaH2PO4, pH 7.0). Immuno-precipitated proteins were eluted with 20 μl of 4× sample buffer (10 minutes, 70° C.). Immuno-precipitated proteins were analyzed by western blotting. […]

Compound | inhibition of SAPK/JNK signaling downstream from IL1RI [1] | location of blocked trypsin sites on IL1R1 [2] | inhibition of ligand pull-down / 3-protein complex formation [3]
HLRNISRISSITDTSETETEQ [scrambled peptide] | does not inhibit the signaling downstream from IL1RI |  | 
O=S(=O)(O)c1cccc2cccc(Nc3ccccc3)c12 [ANSA, 8-Anilino-1-naphthalenesulfonic acid] |  | lay on the surface of the molecule | 
TINESISHSRTEDETRTQILS [Arg286 peptide] | completely blocked IL1 ligand-stimulated signaling, in a dose dependent manner; also recorded: inhibited SAPK/JNK signaling downstream from IL1RI as effectively as IL1RAcP |  | completely blocked IL1RAcP 3-way binding to the receptor ligand complex; also recorded: inhibition of ligand pull-down
CCN1/C(=C/C=C/c2sc3ccccc3[n+]2CC)Sc2ccccc21 [DECI, 3,3′-Diethylthiacarbocyanine iodide] |  | lay on the surface of the folded molecule | 
CN=C1C=CC(=C(c2ccc(N(C)C)cc2)c2ccc(N(C)C)cc2)C=C1.Cl [MV, N-(4-{bis[4-(dimethylamino)phenyl]methylene}-2,5-cyclohexadien-1-ylidene)methanaminium chloride] |  | lay on the surface of the folded native molecule | 
